Inhibition and IC50 data for 18 molecules are collected here from US12371404B2, “Fused bicyclic alkylene linked imidodicarbonimidic diamides, methods for synthesis, and uses in therapy” (NovaTarg, Inc., priority 2016, dated 2025).

Structures can show the parent of a compound that is named as a salt.

One assay has as its target T1, human PMAT (Homo sapiens, UniProt Q7RTT9).
T1 construct: expressed in transfected cells; host or cells: HEK293
T1 sequence (Q7RTT9 1-530): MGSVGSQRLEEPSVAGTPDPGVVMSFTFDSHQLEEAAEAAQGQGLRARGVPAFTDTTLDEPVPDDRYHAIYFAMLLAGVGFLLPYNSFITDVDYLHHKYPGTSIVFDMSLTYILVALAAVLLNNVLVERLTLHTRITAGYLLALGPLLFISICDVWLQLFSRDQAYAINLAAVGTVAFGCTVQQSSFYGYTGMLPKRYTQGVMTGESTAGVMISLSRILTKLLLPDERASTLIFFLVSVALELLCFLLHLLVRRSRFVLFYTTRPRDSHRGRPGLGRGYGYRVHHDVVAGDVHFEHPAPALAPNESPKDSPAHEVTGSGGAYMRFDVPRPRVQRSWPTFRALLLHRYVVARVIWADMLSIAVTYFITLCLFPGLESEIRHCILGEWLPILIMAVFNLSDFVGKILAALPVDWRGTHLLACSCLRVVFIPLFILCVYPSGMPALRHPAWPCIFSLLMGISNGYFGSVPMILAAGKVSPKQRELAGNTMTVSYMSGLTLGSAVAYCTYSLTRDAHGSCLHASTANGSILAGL
The assay is described as follows: Oxygen consumption rate (OCR) assay, HEK293 cells transfected with PMAT. To be noted: for inhibition at 10 µM: HEK293 cells with human PMAT. The format is cell-based. From the text: (§1) Diabetologia 2011, 54 (12): 3101-3110, each incorporated by reference with regard to such testing. The compounds of the present invention are similarly tested in an oxygen consumption rate (OCR) assay to evaluate the functional activity of test compounds in cells.
(§2) In brief, the assay uses HEK293 cells stably transfected with the human OCT1, OCT2, OCT3, PMAT, or MATE1 transporters to determine a compound's relative transporter selectivity and its effect on the rate of oxygen consumption relative to control (Neo) cells. The MitoXpress Xtra oxygen-sensitive fluorophore is used to monitor oxygen consumption rates in the presence and absence of compound treatments. The analogs were tested at eight (8) different concentrations in triplicate to determine a relative IC50 value.
(§3) A summary description of the protocol is as follows:
(§4) HEK293 cells transformed with human organic cation transporters were plated in collagen coated, 96-well black-walled microclear plates (Greiner-Bio 1, #655956) at 60,000 cells per well in growth medium (DMEM (LG), 10% FBS, 400 μg/ml G418). Cells were incubated overnight to allow attachment. The outer columns (1 and 12) are not seeded with cells, as controls. The next day, plating medium was removed and replaced with 150 μL of assay medium (DMEM/F12 (PRF), 5% FBS, antibiotics) containing compound dilutions. A 3-fold serial dilution was prepared in the assay medium and transferred to the empty wells. The outer columns and column 11 received 150 μL of assay medium only. 10 μL of MitoXpress Xtra reagent was added to each test well, and 100 μL of pre-warmed mineral oil was overlayed in each well to create a seal. Dual read time-resolved fluorescence (BMG FluoStar Galaxy reader) was measured over 2 hours with measurements taken every 2 minutes. Excitation is 340 nm, Emission is 650 nm. For lifetime analysis, two measurements per well were taken: 1) delay of 30 μs, with a window of 30 μs; and 2) delay of 70 μs with a window of 30 μs. Background TRF values from A1-D1 were subtracted from all readings. A ratiometric analysis was performed to determine changes in the Lifetime fluorescence signal:Lifetime (μs) [T]=(D2−D1)/ln(W1/W2), where D is delay; W is fluorescence window value at each time point. Lifetime slopes were calculated using each Lifetime measurement over time. IC50 values were determined by plotting lifetime slope values vs. compound concentration.

The subject of another assay is control (Neo) cells. Description: Oxygen consumption rate (OCR) assay, control (Neo) HEK293 cells. The format is cell-based. As to conditions: Homo sapiens; control (Neo) HEK293 cells; MitoXpress Xtra, 2 hours; read-out: Oxygen Consumption Rate (OCR) IC50, Neo.
From the text: as §1, §2, §3, §4

Another assay has as its target T2, human MATE1 (Homo sapiens, UniProt Q96FL8).
T2 sequence (Q96FL8 1-570): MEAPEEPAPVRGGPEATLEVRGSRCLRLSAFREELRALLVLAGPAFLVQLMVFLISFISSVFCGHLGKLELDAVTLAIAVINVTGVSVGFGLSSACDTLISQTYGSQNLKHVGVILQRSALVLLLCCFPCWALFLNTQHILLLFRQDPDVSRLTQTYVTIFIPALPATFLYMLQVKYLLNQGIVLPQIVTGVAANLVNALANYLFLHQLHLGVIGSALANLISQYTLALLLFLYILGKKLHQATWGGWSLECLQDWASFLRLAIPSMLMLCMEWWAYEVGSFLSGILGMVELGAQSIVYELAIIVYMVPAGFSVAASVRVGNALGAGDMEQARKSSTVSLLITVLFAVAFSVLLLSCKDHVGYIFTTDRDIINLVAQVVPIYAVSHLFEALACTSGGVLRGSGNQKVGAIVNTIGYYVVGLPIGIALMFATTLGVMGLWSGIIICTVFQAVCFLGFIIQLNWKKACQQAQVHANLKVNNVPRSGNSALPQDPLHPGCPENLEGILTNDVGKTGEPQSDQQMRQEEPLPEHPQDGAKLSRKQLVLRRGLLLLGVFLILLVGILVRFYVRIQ
Description: Oxygen consumption rate (OCR) assay, HEK293 cells transfected with MATE1. To be noted: for inhibition at 1000 µM: HEK293, read-out: Oxygen Consumption Rate (OCR), MATE 1, % Inhibition at 1000 μM test concentration.
From the text: The compounds of the present invention are similarly tested in an oxygen consumption rate (OCR) assay to evaluate the functional activity of test compounds in cells.
as §2, §3
as §4, with “Cells” for “HEK293 cells transformed with human organic cation transporters were plated in collagen coated, 96-well black-walled microclear plates (Greiner-Bio 1, #655956) at 60,000 cells per well in growth medium (DMEM (LG), 10% FBS, 400 μg/ml G418). Cells”

By IC50 is commonly meant the midpoint of a concentration-inhibition curve. For the molecule `N=C(N)NC(=N)NCCc1c[nH]c2ccc(Cl)cc12` [Ex 9, 1-[2-(5-chloro-1H-indol-3-yl)ethyl]imidodicarbonimide diamide, trifluoroacetic acid salt], the inhibition at 10 µM on human PMAT was found to be 53%. Moreover, the figures for the IC50 in the assay on control (Neo) cells and on human MATE1 were 70 µM and 171 µM, respectively.

In the case of `N=C(N)NC(=N)NCCc1c[nH]c2cc(Cl)c(F)cc12` [Ex 48, 1-[2-(6-chloro-5-fluoro-1H-indol-3-yl)ethyl]imidodicarbonimide diamide, trifluoroacetic acid salt], the inhibition at 10 µM against human PMAT was determined as 61%. The IC50 with control (Neo) cells came out at 210 µM; against human MATE1, 101 µM.

Take `N=C(N)NC(=N)NCc1c[nH]c2ccccc12` [Ex 55, 1-[(1H-indol-3-yl)methyl]imidodicarbonimide diamide, trifluoroacetic acid salt]: the inhibition at 10 µM on human PMAT was 10%. Further, the 50% inhibitory concentration (IC50) turned out to be 1400 µM in the assay with control (Neo) cells and 1650 µM against human MATE1.

On to `N=C(N)NC(=N)NCCc1c[nH]c2nc(F)ccc12` [Ex 45, 1-(2-(6-fluoro-1H-pyrrolo[2,3-b]pyridin-3-yl)ethyl)imidodicarbonimide diamide, trifluoroacetic acid salt], for which the IC50 at human PMAT (HEK293 cells stably transfected with human PMAT, MitoXpress Xtra, 2 hours, read-out: Oxygen Consumption Rate (OCR) IC50, PMAT) was 14 µM; in the assay on control (Neo) cells, 11400 µM; against human MATE1, greater than 3000 µM.

As for `CC(Cc1cn(C)c2ccc(F)cc12)NC(=N)NC(=N)N` (centres unmarked) [Ex 6, 1-[1-(5-fluoro-1-methyl-1H-indol-3-yl)propan-2-yl]imidodicarbonimide Diamide], the inhibition at 10 µM against human PMAT stood at 8%. Moreover, the IC50 in the assay on control (Neo) cells is greater than 10000 µM. In addition, the inhibition at 1000 µM on human MATE1 was determined as 18%.

Regarding `N=C(N)NC(=N)NCCc1c[nH]c2ccncc12` [Ex 22, 1-(2-(1H-pyrrolo[3,2-c]pyridin-3-yl)ethyl)imidodicarbonimide diamide hydrochloride], at human PMAT, the inhibition at 10 µM is -7%. For the same molecule, the concentration for half-maximal inhibition (IC50) is 3240 µM with control (Neo) cells and 2980 µM at human MATE1.

As for `Cn1cc(CCNC(=N)NC(=N)N)c2cc(F)ccc21` [Ex 4, 1-[2-(5-fluoro-1-methyl-1H-indol-3-yl)ethyl]imidodicarbonimide diamide], the inhibition at 10 µM at human PMAT was found to be 41%. Also, the figures for the IC50 in the assay on control (Neo) cells and on human MATE1 were 678 µM and 1570 µM, respectively.

Turning to `N=C(N)NC(=N)NCCc1c[nH]c2ccc(OC(F)(F)F)cc12` [Ex 57, 1-[2-(5-trifluoromethoxy-1H-indol-3-yl)ethyl]imidodicarbonimide diamide, trifluoroacetic acid salt], at human PMAT, the inhibition at 10 µM stood at 6%. In addition, the half-maximal inhibitory concentration (IC50) came out at 255 µM in the assay with control (Neo) cells and 631 µM at human MATE1.

As for `N=C(N)NC(=N)NCCc1c[nH]c2c(Cl)cc(F)cc12` [Ex 38, 1-[2-(7-chloro-5-fluoro-1H-indol-3-yl)ethyl]imidodicarbonimide diamide, trifluoroacetic acid salt], the IC50 in the assay on control (Neo) cells came out at 8760 µM; at human MATE1, 2050 µM.

With `CC(CNC(=N)NC(=N)N)c1c[nH]c2cc(F)ccc12` (centres unmarked) [Ex 62, 1-[2-(6-fluoro-1H-indol-3-yl)propyl]imidodicarbonimide diamide, trifluoroacetic acid salt], the concentration for half-maximal inhibition (IC50) in the assay on control (Neo) cells and at human MATE1 was 3430 µM throughout.

On to `COc1cccc2[nH]cc(CCNC(=N)NC(=N)N)c12` [Ex 14, 1-[2-(4-methoxy-1H-indol-3-yl)ethyl]imidodicarbonimide diamide trifluoroacetic acid salt], for which the IC50 in the assay on control (Neo) cells is 1310 µM. For the same molecule, the inhibition at 1000 µM at human MATE1 worked out at 39%.

For `CN(C)C(=N)NC(=N)NCCc1c[nH]c2nc(F)ccc12` [Ex. 54, 3-(2-(6-fluoro-1H-pyrrolo[2,3-b]pyridin-3-yl)ethyl)-1,1-dimethyl imidodicarbonimide diamide trifluoroacetic acid salt], the values for the half-inhibitory concentration (IC50) in the assay on control (Neo) cells and against human MATE1 were 4600 µM and 4950 µM, respectively.

As for `N=C(N)NC(=N)NCCc1c[nH]c2c(F)c(Cl)ccc12` [Ex 51, 1-[2-(6-chloro-7-fluoro-1H-indol-3-yl)ethyl]imidodicarbonimide diamide, trifluoroacetic acid salt], the IC50 came out at 542 µM in the assay on control (Neo) cells and 597 µM against human MATE1.

Turning to `N=C(N)NC(=N)NCCc1c[nH]c2nccc(Cl)c12` [Ex 46, 1-(2-(4-chloro-1H-pyrrolo[2,3-b]pyridin-3-yl)ethyl)imidodicarbonimide diamide, trifluoroacetic acid salt], the results for the 50% inhibitory concentration (IC50) with control (Neo) cells and against human MATE1 were 2640 µM and 335 µM, respectively.

As for `Cc1[nH]c2ncccc2c1CCNC(=N)NC(=N)N` [Ex 44, 1-(2-(2-methyl-1H-pyrrolo[2,3-b]pyridin-3-yl)ethyl)imidodicarbonimide diamide, trifluoroacetic acid salt], the IC50 was determined as 1660 µM in the assay with control (Neo) cells and 474 µM against human MATE1.

For the molecule `N=C(N)NC(=N)NCCc1c[nH]c2ccc(OCCO)cc12` [Ex 15, 1-(2-(5-(2-hydroxyethoxy)-1H-indol-3-yl)ethyl)imidodicarbonimide diamide trifluoroacetic acid salt], the half-maximal inhibitory concentration (IC50) in the assay with control (Neo) cells is greater than 10000 µM. Besides, the inhibition at 1000 µM at human MATE1 is -17%.

Turning to `N=C(N)NC(=N)NCCc1c[nH]c2c(F)cc(Cl)cc12` [Ex 64, 1-[2-(5-chloro-7-fluoro-1H-indol-3-yl)ethyl]imidodicarbonimide diamide, trifluoroacetic acid salt], the concentration for half-maximal inhibition (IC50) with control (Neo) cells came to 282 µM; against human MATE1, 370 µM.

`CC(C)(CNC(=N)NC(=N)N)c1c[nH]c2cc(F)ccc12` [Ex 63, 1-[2-(6-fluoro-1H-indol-3-yl)-2-methylpropyl]imidodicarbonimide diamide, trifluoroacetic acid salt]: the figures for the IC50 in the assay on control (Neo) cells and on human MATE1 were 1750 µM and 3790 µM, respectively.
